Earlier results on one molecule are cited in US20260048030A1, “REPARIXIN LIQUID SUSPENSIONS” (Dompe' Farmaceutici SPA, priority 2022, published 2026).

For the series, the system named is hospitalized patients with severe COVID-19 pneumonia. Particulars: phase 2.

Take `CC(C)Cc1ccc([C@@H](C)C(=O)NS(C)(=O)=O)cc1` [Reparixin, R-(−)-2-(4-isobutylphenyl)propionyl methansulfonamide]: the “Clinical outcomes compared with the standard of care” value is “improved clinical outcomes”.
